The record followed here is article PMC3639963, “A New Class of Small Molecule Inhibitor of BMP Signaling” (PLoS ONE, 2013).

Molecules are shown by their SMILES.

Assay in all cases: DSF thermal shift
What all share (type): binding
Holding throughout (conditions): 10 µM inhibitor; read-out: Tm shift

Assay [1] addresses T1, GRK1 (Homo sapiens, UniProt Q15835).
T1 construct: purchased Nanosyn (enzymatic panel); SGC in-house recombinant human kinases (DSF panel); Invitrogen (ALK1-6)
T1 sequence (Q15835 1-563): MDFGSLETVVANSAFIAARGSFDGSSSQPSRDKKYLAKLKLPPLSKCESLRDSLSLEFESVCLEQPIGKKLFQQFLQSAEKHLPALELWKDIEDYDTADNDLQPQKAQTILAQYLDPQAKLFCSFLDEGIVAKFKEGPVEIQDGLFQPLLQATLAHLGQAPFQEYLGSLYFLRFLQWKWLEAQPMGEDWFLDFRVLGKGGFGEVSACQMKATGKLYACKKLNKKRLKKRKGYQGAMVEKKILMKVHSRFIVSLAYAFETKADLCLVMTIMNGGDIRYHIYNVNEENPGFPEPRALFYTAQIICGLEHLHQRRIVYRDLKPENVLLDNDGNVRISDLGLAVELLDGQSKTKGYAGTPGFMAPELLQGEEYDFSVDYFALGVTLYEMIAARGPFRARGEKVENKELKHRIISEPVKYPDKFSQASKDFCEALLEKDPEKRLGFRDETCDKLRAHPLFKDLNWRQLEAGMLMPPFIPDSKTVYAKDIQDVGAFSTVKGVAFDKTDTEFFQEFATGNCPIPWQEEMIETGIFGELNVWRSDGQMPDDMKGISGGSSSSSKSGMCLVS
The protocol: (§1) Thermal melting experiments were performed using a Real Time PCR machine Mx3005p (Stratagene) with a protein concentration of 1–2 µM and 10 µM inhibitor as described previously, [25]. […] Recombinant human kinases for DSF screening were prepared by SGC using published methods, [36].

Assay [2] addresses T2, AMPKα1 (Homo sapiens, UniProt Q13131).
T2 construct: purchased Nanosyn (enzymatic panel); SGC in-house recombinant human kinases (DSF panel); Invitrogen (ALK1-6)
The protocol: as §1

The target of assay [3] is T3, YANK1 (Homo sapiens, UniProt Q8WU08).
T3 construct: purchased Nanosyn (enzymatic panel); SGC in-house recombinant human kinases (DSF panel); Invitrogen (ALK1-6)
The protocol:
as §1

The target of assay [4] is T4, CHEK2 (Homo sapiens, UniProt O96017).
T4 construct: purchased Nanosyn (enzymatic panel); SGC in-house recombinant human kinases (DSF panel); Invitrogen (ALK1-6)
The protocol: as §1

Assay [5] has as its target T5, MRCKβ (Homo sapiens, UniProt Q9Y5S2).
T5 construct: purchased Nanosyn (enzymatic panel); SGC in-house recombinant human kinases (DSF panel); Invitrogen (ALK1-6)
The protocol:
as §1

The target in assay [6] is T6, PKN1 (Homo sapiens, UniProt Q16512).
T6 construct: purchased Nanosyn (enzymatic panel); SGC in-house recombinant human kinases (DSF panel); Invitrogen (ALK1-6)
The protocol:
as §1

In assay [7] the target is T7, CLK4 (Homo sapiens, UniProt Q9HAZ1).
T7 construct: purchased Nanosyn (enzymatic panel); SGC in-house recombinant human kinases (DSF panel); Invitrogen (ALK1-6)
The protocol: as §1

For assay [8], the target named is T8, PIM1 (Homo sapiens, UniProt P11309).
T8 construct: purchased Nanosyn (enzymatic panel); SGC in-house recombinant human kinases (DSF panel); Invitrogen (ALK1-6)
The protocol: as §1

Assay [9] addresses T9, JNK1 (Homo sapiens, UniProt P45983).
T9 construct: purchased Nanosyn (enzymatic panel); SGC in-house recombinant human kinases (DSF panel); Invitrogen (ALK1-6)
The protocol: as §1

Assay [10] concerns the target T10, DRAK2 (Homo sapiens, UniProt O94768).
T10 construct: purchased Nanosyn (enzymatic panel); SGC in-house recombinant human kinases (DSF panel); Invitrogen (ALK1-6)
T10 sequence (O94768 1-372): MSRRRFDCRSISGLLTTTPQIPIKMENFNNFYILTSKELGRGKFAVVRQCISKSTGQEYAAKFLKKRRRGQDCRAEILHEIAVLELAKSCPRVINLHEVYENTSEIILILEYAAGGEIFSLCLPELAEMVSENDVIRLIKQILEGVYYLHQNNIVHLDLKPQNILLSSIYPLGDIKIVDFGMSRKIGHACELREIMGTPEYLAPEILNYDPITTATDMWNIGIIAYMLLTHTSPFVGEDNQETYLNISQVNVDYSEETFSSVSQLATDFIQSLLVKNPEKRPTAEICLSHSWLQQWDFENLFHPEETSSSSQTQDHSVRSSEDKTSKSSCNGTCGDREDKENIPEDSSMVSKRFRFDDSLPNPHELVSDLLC
The protocol:
as §1

Assay [11] addresses T11, PIM2 (Homo sapiens, UniProt Q9P1W9).
T11 construct: purchased Nanosyn (enzymatic panel); SGC in-house recombinant human kinases (DSF panel); Invitrogen (ALK1-6)
The protocol: as §1

Assay [12] concerns the target T12, CDK2 (Homo sapiens, UniProt P24941).
T12 construct: purchased Nanosyn (enzymatic panel); SGC in-house recombinant human kinases (DSF panel); Invitrogen (ALK1-6)
The protocol:
as §1

Assay [13] has as its target T13, PIM3 (Homo sapiens, UniProt Q86V86).
T13 construct: purchased Nanosyn (enzymatic panel); SGC in-house recombinant human kinases (DSF panel); Invitrogen (ALK1-6)
The protocol:
as §1

The target in assay [14] is T14, OSR1 (Homo sapiens, UniProt O95747).
T14 construct: purchased Nanosyn (enzymatic panel); SGC in-house recombinant human kinases (DSF panel); Invitrogen (ALK1-6)
The protocol: as §1

The target of assay [15] is T15, JNK2 (Homo sapiens, UniProt P45984).
T15 construct: purchased Nanosyn (enzymatic panel); SGC in-house recombinant human kinases (DSF panel); Invitrogen (ALK1-6)
The protocol:
as §1

Assay [16] addresses T16, MST3 (Homo sapiens, UniProt Q9Y6E0).
T16 construct: purchased Nanosyn (enzymatic panel); SGC in-house recombinant human kinases (DSF panel); Invitrogen (ALK1-6)
The protocol:
as §1

The target in assay [17] is T17, NEK11 (Homo sapiens, UniProt Q8NG66).
T17 construct: purchased Nanosyn (enzymatic panel); SGC in-house recombinant human kinases (DSF panel); Invitrogen (ALK1-6)
T17 sequence (Q8NG66 1-645): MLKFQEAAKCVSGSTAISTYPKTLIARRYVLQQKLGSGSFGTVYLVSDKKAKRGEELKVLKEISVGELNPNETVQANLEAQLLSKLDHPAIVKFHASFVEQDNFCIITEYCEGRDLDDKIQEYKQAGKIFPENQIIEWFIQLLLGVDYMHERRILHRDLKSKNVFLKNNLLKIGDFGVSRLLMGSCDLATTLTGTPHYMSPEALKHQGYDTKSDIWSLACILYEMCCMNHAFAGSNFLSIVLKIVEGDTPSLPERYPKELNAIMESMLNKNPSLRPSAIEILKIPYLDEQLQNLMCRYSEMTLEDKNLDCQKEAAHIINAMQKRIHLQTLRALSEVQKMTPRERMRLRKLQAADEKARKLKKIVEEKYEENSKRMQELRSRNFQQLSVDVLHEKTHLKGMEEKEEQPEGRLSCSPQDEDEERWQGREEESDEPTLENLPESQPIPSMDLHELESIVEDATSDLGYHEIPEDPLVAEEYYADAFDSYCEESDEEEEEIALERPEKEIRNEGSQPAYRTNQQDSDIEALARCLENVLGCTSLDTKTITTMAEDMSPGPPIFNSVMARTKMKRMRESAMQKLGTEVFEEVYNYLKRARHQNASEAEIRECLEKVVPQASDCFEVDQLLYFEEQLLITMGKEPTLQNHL
The protocol:
as §1

T16 sequence (Q9Y6E0 whole entry): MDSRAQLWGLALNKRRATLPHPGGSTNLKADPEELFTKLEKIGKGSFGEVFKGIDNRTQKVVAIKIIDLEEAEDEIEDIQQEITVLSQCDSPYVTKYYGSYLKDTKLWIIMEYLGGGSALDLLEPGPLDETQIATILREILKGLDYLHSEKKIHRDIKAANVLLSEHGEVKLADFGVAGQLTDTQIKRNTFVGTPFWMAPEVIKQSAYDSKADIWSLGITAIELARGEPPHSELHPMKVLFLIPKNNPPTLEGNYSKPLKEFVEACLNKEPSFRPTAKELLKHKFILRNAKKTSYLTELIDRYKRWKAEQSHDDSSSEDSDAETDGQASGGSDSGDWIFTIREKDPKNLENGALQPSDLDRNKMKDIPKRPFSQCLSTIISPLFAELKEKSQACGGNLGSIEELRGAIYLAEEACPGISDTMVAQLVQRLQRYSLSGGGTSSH
T3 sequence (Q8WU08 whole entry): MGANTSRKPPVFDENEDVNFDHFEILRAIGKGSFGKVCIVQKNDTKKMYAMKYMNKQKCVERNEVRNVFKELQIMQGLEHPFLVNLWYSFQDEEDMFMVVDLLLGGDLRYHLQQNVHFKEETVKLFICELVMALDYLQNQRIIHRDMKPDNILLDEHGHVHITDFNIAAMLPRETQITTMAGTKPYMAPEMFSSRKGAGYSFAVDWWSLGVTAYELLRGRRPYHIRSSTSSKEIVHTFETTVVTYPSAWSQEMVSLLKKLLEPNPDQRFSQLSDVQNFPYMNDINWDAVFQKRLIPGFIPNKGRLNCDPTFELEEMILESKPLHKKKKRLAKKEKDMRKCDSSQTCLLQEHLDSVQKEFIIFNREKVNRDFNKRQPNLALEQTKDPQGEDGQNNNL
T9 sequence (P45983 whole entry): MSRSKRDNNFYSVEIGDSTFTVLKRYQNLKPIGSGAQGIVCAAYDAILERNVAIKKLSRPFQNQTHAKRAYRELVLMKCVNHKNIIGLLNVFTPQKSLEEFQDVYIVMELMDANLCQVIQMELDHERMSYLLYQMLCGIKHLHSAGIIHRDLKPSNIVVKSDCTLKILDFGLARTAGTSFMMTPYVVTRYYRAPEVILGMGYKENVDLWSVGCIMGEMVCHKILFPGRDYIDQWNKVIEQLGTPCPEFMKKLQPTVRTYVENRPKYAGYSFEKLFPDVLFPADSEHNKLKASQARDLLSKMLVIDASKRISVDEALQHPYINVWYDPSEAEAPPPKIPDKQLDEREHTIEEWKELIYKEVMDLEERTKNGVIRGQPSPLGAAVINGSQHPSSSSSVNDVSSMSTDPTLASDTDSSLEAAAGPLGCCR
T2 sequence (Q13131 whole entry): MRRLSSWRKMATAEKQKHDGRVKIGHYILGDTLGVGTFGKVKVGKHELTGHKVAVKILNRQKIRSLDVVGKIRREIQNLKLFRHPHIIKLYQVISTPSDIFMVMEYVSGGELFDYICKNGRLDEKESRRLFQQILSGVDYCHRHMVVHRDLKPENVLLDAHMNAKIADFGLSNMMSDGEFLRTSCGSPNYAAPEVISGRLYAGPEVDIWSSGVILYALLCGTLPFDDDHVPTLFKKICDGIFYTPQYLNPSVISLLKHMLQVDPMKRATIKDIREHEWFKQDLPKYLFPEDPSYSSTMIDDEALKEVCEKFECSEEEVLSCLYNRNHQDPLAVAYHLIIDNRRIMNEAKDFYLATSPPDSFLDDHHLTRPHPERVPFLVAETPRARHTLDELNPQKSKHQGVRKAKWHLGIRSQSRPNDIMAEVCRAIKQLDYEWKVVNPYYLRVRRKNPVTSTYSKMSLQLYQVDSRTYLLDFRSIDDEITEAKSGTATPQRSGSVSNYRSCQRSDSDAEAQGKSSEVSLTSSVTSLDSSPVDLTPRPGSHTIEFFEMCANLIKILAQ
T2 sequence (Q9Y478 whole entry partner): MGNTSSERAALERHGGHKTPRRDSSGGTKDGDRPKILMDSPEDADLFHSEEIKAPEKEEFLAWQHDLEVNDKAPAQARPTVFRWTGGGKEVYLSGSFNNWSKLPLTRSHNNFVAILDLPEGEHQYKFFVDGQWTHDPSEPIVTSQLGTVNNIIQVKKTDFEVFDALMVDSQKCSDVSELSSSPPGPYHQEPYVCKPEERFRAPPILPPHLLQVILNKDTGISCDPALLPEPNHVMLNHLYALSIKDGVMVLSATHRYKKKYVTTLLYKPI
T2 sequence (P54619 whole entry partner): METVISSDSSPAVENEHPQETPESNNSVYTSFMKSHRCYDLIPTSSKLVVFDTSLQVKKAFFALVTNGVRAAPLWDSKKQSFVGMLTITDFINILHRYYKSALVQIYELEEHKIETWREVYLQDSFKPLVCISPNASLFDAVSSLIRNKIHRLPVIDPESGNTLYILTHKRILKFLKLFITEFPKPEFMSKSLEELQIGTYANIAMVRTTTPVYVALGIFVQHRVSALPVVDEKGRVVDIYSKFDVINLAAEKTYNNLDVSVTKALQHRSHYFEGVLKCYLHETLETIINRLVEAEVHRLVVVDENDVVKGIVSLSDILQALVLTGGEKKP
T7 sequence (Q9HAZ1 whole entry): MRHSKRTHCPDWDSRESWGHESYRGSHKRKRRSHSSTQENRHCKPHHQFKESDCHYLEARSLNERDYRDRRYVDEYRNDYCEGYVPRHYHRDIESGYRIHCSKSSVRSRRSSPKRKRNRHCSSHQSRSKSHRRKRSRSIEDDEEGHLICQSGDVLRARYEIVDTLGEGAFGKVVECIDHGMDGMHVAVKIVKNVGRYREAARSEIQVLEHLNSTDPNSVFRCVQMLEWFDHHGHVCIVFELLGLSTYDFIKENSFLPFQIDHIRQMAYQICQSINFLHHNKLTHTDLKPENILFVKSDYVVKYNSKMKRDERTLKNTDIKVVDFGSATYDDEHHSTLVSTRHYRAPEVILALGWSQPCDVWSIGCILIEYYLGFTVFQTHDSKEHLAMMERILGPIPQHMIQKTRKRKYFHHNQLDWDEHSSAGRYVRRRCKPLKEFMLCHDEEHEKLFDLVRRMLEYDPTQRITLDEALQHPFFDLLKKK
T4 sequence (O96017 whole entry): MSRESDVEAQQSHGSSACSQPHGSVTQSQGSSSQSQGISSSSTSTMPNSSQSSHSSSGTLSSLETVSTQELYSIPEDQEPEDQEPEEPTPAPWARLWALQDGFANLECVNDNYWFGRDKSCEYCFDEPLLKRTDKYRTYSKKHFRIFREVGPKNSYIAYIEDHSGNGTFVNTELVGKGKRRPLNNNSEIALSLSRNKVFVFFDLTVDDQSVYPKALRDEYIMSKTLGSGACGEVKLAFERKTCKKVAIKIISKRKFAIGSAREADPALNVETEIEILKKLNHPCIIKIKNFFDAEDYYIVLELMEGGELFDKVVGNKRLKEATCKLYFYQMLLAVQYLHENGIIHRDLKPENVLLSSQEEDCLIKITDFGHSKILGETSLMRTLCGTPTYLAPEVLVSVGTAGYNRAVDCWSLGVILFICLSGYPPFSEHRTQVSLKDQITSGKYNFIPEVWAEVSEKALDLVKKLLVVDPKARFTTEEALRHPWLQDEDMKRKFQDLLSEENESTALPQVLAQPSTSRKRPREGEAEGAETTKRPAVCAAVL
T11 sequence (Q9P1W9 whole entry): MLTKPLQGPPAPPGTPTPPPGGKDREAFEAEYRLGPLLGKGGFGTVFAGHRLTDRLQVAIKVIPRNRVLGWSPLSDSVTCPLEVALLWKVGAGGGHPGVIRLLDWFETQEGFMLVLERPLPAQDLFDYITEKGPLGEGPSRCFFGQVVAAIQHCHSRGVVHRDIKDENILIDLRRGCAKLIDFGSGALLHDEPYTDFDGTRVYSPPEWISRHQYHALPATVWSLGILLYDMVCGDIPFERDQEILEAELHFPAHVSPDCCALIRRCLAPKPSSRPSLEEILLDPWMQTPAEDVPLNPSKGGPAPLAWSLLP
T15 sequence (P45984 whole entry): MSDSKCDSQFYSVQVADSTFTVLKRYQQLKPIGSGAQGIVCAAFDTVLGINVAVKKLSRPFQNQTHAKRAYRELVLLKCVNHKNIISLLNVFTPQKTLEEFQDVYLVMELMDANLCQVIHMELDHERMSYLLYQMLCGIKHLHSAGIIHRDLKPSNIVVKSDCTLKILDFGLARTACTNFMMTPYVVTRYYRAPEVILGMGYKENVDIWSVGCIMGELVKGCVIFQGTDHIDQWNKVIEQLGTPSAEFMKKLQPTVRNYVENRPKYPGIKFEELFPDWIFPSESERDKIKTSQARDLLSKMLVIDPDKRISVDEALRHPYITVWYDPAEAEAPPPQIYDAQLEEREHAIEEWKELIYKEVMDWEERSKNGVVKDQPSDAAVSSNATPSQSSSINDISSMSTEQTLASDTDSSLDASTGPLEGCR
T8 sequence (P11309 whole entry): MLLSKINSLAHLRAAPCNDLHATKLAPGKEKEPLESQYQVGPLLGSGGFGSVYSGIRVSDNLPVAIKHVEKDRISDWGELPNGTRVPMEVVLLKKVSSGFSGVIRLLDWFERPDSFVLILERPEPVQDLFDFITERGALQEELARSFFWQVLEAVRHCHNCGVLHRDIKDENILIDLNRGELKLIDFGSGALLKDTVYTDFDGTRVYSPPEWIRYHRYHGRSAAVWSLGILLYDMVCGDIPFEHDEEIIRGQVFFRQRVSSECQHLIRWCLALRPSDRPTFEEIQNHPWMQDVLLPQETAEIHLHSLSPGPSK

As to `c1ccc2c(-c3cnn4cc(-c5ccc(N6CCNCC6)cc5)cnc34)ccnc2c1` [LDN-193189], the ΔTm at 10 µM in [1] was -0.7 °C; in assay [2], 4.3 °C; in assay [3], 1.2 °C; in [4], 1.4 °C; in assay [5], 0.6 °C; in assay [6] it was 2.3 °C. Further, the ΔTm at 10 µM is 5.3 °C in assay [7]; 0.5 °C in assay [8]; 0.5 °C in [9]; 2.1 °C in assay [10]; -1.3 °C in assay [11]; 0.7 °C in [12]. In addition, the ΔTm at 10 µM in [13] was -0.2 °C; in assay [14], 0.9 °C; in [15], -0.6 °C; in [16] it was 7.9 °C; in [17], -0.3 °C.
Consider `COc1cc(-c2cc(-c3cccc(O)c3)cnc2N)cc(OC)c1OC` [K02288, 3-[6-amino-5-(3,4,5-trimethoxy-phenyl)-pyridin-3-yl]-phenol], for which the ΔTm at 10 µM came out at 0 °C in [1]; 0.2 °C in [2]; 0.2 °C in [3]; 0 °C in [4]; 0.4 °C in [5]; 0.5 °C in assay [6]. Besides, the ΔTm at 10 µM stood at 0.3 °C in assay [7]; 0.1 °C in assay [8]; 0.2 °C in [9]; 0.6 °C in assay [10]; 0.1 °C in assay [11]; 0.1 °C in [12]. For the same molecule, the ΔTm at 10 µM in [13] was -0.2 °C; in [14] it was 0 °C; in [15], -0.1 °C; in [16], 0.3 °C; in assay [17], 0.3 °C.
`c1cc(-c2cnn3cc(-c4ccc(OCCN5CCCCC5)cc4)cnc23)ccn1` [Dorsomorphin]: the ΔTm at 10 µM is 0.4 °C in [1]; 3.9 °C in [2]; 0.5 °C in [3]; 1.7 °C in [4]; 0 °C in assay [5]; 2.3 °C in assay [6]. For the same molecule, the ΔTm at 10 µM in [7] amounted to 8.7 °C; in assay [8] it was 0.6 °C; in assay [9] it was 0 °C; in assay [10] it was 10 °C; in assay [11] it was 0.6 °C; in assay [12], 2.5 °C. Moreover, the ΔTm at 10 µM in assay [13] was determined as 0.6 °C; in assay [14] it was 1.6 °C; in assay [15], 0.4 °C; in assay [16], 4.6 °C; in [17], 2 °C.
